9 molecules from PubChem BioAssay (NCI) can be followed below.

SMILES strings stand for the structures. “And” between values parts separate entries of the source, which are not always exact repeats. Identical values can stand only once.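 Exposure lasted 48 hours, with cells grown in 96-well plates and compounds tested at five concentrations. TGI marks complete inhibition of growth.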

Some test systems named below: RXF 393 renal; MOLT-4 leukemia; HL-60(TB) leukemia; ACHN renal; SF-268 CNS; SN12C renal; NCI-H522 lung; MALME-3M melanoma; NCI-H226 lung; OVCAR-5 ovarian; SK-OV-3 ovarian; KM12 colon; LXFL 529 NSCLC; 786-0 renal; SW-620 colon; NCI-H460 lung; OVCAR-3 ovarian; HS 578T breast; MDA-MB-435; NCI/ADR-RES ovarian.
What all share (experiment): inhibition of tumour cell growth, NCI panel, 48 h

As for `O=c1cc(-c2ccccc2)[nH]c2cc(F)cc(F)c12`, the TGI is 81.7 µM in the test with RXF 393 renal; above 100 µM in the test with MOLT-4 leukemia; above 100 µM with HL-60(TB) leukemia; above 100 µM in the test with ACHN renal; above 100 µM in the test with SF-268 CNS; above 100 µM in the test on SN12C renal. For the same molecule, the TGI was 35.3 µM in the test with NCI-H522 lung; 79.4 µM in the test on MALME-3M melanoma; 80.5 µM with NCI-H226 lung; above 100 µM with OVCAR-5 ovarian; above 100 µM in the test with SK-OV-3 ovarian; above 100 µM in the test with KM12 colon. Moreover, the TGI in the test with LXFL 529 NSCLC, in the test with 786-0 renal, in the test on SW-620 colon and in the test with NCI-H460 lung was above 100 µM throughout.

For `CC(Oc1ccc(Oc2cnc3ccc(Cl)cc3n2)cc1)C(=O)O` (centres undefined), the TGI with RXF 393 renal, in the test with MOLT-4 leukemia, in the test on OVCAR-3 ovarian, in the test on HL-60(TB) leukemia, in the test with ACHN renal and with SF-268 CNS was above 100 µM in each case. Moreover, the TGI in the test on SN12C renal was above 100 µM; with HS 578T breast, above 100 µM; in the test on MDA-MB-435 it was above 100 µM; in the test on NCI/ADR-RES ovarian, above 100 µM; in the test on NCI-H522 lung, 99.4 µM and > 100 µM; in the test with MALME-3M melanoma, above 100 µM. Also, the TGI with NCI-H226 lung is > 100 µM and 33.2 µM; with OVCAR-5 ovarian it was above 100 µM; in the test on SK-OV-3 ovarian, above 100 µM; with KM12 colon, above 100 µM; in the test on LXFL 529 NSCLC, above 100 µM; in the test with 786-0 renal, above 100 µM. The TGI in the test on SW-620 colon and with NCI-H460 lung was above 100 µM throughout.

Regarding `FC(F)(F)c1ccc2c(c1)nc1n2C(c2c(Cl)cccc2Cl)SC1` (centres undefined), the TGI in the test on RXF 393 renal is 28.7 µM; in the test with MOLT-4 leukemia, above 100 µM; in the test with OVCAR-3 ovarian, 28.8 µM; in the test on HL-60(TB) leukemia, 67.5 µM; in the test with ACHN renal, 40.3 µM; with SF-268 CNS, 47.2 µM. For the same molecule, the TGI in the test with SN12C renal was 32.2 µM; with HS 578T breast, 59.3 µM; in the test on MDA-MB-435, 41.4 µM; in the test on NCI/ADR-RES ovarian, 58.9 µM; in the test with NCI-H522 lung, 51.9 µM; in the test on MALME-3M melanoma, 42.1 µM. For the same molecule, the TGI in the test on NCI-H226 lung is 58.2 µM; in the test on OVCAR-5 ovarian, 32.3 µM; in the test with SK-OV-3 ovarian it was 85.9 µM; with KM12 colon, 27.2 µM; with 786-0 renal it was 33.4 µM; in the test with SW-620 colon it was 71.3 µM. In addition, the TGI in the test on NCI-H460 lung came out at 35 µM.

`c1ccc2cc3c(NC4=NCCO4)cccc3cc2c1`: the TGI was above 100 µM in the test on RXF 393 renal; above 100 µM in the test with MOLT-4 leukemia; above 100 µM in the test on OVCAR-3 ovarian; 52.1 µM with HL-60(TB) leukemia; above 100 µM in the test on ACHN renal; above 100 µM in the test on SF-268 CNS. For the same molecule, the TGI with SN12C renal is above 100 µM; in the test on HS 578T breast, above 100 µM; in the test on MDA-MB-435, 98.8 µM; in the test on NCI/ADR-RES ovarian, above 100 µM; in the test with NCI-H522 lung it was above 100 µM; in the test on MALME-3M melanoma, above 100 µM. In addition, the TGI in the test on NCI-H226 lung, with OVCAR-5 ovarian, in the test with SK-OV-3 ovarian, in the test on KM12 colon, in the test on 786-0 renal and with SW-620 colon was above 100 µM each time. In the test with NCI-H460 lung, this molecule displayed a TGI above 100 µM.

For the molecule `CC(C)=NOC(=O)CNC(=O)C(Cc1ccccc1)NC(=O)C(C)NC(=O)OC(C)(C)C` (centres undefined), the TGI in the test on RXF 393 renal, in the test with MOLT-4 leukemia, in the test with OVCAR-3 ovarian, with HL-60(TB) leukemia, in the test on ACHN renal and with SF-268 CNS was above 100 µM in each case. The TGI with SN12C renal, in the test with HS 578T breast, with MDA-MB-435, with NCI/ADR-RES ovarian, in the test with NCI-H522 lung and in the test on MALME-3M melanoma was above 100 µM throughout. Besides, the TGI with NCI-H226 lung, with OVCAR-5 ovarian, in the test with SK-OV-3 ovarian, in the test with KM12 colon, in the test with 786-0 renal and in the test on SW-620 colon was above 100 µM throughout. Further, the TGI with NCI-H460 lung is above 100 µM.

`COC1(C2c3ccccc3CCN2C(=O)OC(C)(C)C)C(=O)C(c2ccccc2)=C1N(C)C` (centres undefined): the TGI was above 100 µM in the test with RXF 393 renal; above 100 µM with MOLT-4 leukemia; 70.6 µM in the test with OVCAR-3 ovarian; 79.8 µM in the test on HL-60(TB) leukemia; above 100 µM with ACHN renal; above 100 µM in the test with SF-268 CNS. The TGI with SN12C renal is 39.9 µM; in the test with HS 578T breast it was 96.9 µM; in the test with MDA-MB-435, 61.6 µM; in the test with NCI/ADR-RES ovarian, 57.9 µM; in the test with NCI-H522 lung, 56.8 µM; with MALME-3M melanoma, 93.8 µM. Besides, the TGI in the test on NCI-H226 lung was 59.6 µM; with OVCAR-5 ovarian, above 100 µM; with SK-OV-3 ovarian it was above 100 µM; in the test with KM12 colon, above 100 µM; in the test on 786-0 renal, 93.3 µM; with SW-620 colon, above 100 µM. The molecule further had a TGI in the test on NCI-H460 lung above 100 µM.

`O=C(Cn1cc(Br)c(=O)[nH]c1=O)c1ccc(-c2ccccc2)cc1`: the TGI with RXF 393 renal is above 100 µM; with MOLT-4 leukemia it was above 27.5 µM; in the test with OVCAR-3 ovarian it was above 100 µM; in the test with HL-60(TB) leukemia it was above 35.1 µM; with ACHN renal, above 100 µM; in the test on SF-268 CNS, 15.8 µM. Moreover, the TGI with SN12C renal is above 100 µM; in the test with HS 578T breast, above 100 µM; in the test on MDA-MB-435, above 55.3 µM; in the test on NCI/ADR-RES ovarian, above 100 µM; in the test with NCI-H522 lung it was above 13.9 µM; with MALME-3M melanoma it was above 100 µM. The TGI is above 100 µM in the test with NCI-H226 lung; above 27.5 µM with OVCAR-5 ovarian; above 100 µM in the test on SK-OV-3 ovarian; above 26.3 µM in the test with KM12 colon; above 100 µM with 786-0 renal; above 100 µM in the test with SW-620 colon. The molecule also had a TGI in the test on NCI-H460 lung above 48 µM.

On to `N#Cc1c(Cl)c2cccnc2n2c1nc1ccccc12`, for which the TGI in the test with RXF 393 renal was 3.44 µM; with MOLT-4 leukemia, 6.15 µM; with OVCAR-3 ovarian, 9.6 µM; in the test on HL-60(TB) leukemia, 3.78 µM; in the test with ACHN renal, 3.2 µM; with SF-268 CNS, 8.4 µM. In addition, the TGI with SN12C renal was determined as 3.7 µM; in the test on HS 578T breast it was 10.5 µM; in the test with MDA-MB-435 it was 13.5 µM; with NCI/ADR-RES ovarian it was 6.55 µM; in the test with NCI-H522 lung, 2.68 µM; in the test on MALME-3M melanoma it was 3.28 µM. In addition, the TGI was determined as 9.58 µM in the test on NCI-H226 lung; 44.8 µM in the test on OVCAR-5 ovarian; 30 µM with SK-OV-3 ovarian; 20.3 µM in the test with KM12 colon; 3.27 µM with 786-0 renal; 4.59 µM in the test with SW-620 colon. The TGI with NCI-H460 lung was 19.6 µM.

As to `O=[N+]([O-])c1ccc(C2ON=C(c3ccccc3)N2C23CC4CC(CC(C4)C2)C3)cc1` (centres undefined), the TGI in the test with RXF 393 renal, with MOLT-4 leukemia, in the test on OVCAR-3 ovarian, in the test on HL-60(TB) leukemia, with ACHN renal and in the test on SF-268 CNS was above 10 µM in each case. For the same molecule, the TGI with SN12C renal, in the test on HS 578T breast, with MDA-MB-435, with NCI/ADR-RES ovarian, in the test on NCI-H522 lung and with MALME-3M melanoma was above 10 µM throughout. In addition, the TGI in the test with NCI-H226 lung, with OVCAR-5 ovarian, with SK-OV-3 ovarian, in the test on KM12 colon, in the test on 786-0 renal and in the test with SW-620 colon was above 10 µM throughout. The molecule further registered a TGI in the test with NCI-H460 lung above 10 µM.
